Source: article PMC8582298 (ChemMedChem, 2020)

Experiments:
[1] = biological target: T1, PP1 (Oryctolagus cuniculus, UniProt P62139); test: Malachite green assay, IC50 determination, PP1; assay type: biochemical; settings: for PP1 versus PP2A preference (in words): based on IC50 values; for IC50 PP1: malachite green assay, phosphopeptide K-R-pT-I-R-R 40 μM, 30 °C, three trials
[2] = biological target: PP2A (Homo sapiens, UniProt P67775); test: Malachite green assay, IC50 determination, PP2A; assay type: biochemical
[3] = biological target: T1, PP1; settings: literature values; cited from earlier work

T1 sequence (P62139 whole entry): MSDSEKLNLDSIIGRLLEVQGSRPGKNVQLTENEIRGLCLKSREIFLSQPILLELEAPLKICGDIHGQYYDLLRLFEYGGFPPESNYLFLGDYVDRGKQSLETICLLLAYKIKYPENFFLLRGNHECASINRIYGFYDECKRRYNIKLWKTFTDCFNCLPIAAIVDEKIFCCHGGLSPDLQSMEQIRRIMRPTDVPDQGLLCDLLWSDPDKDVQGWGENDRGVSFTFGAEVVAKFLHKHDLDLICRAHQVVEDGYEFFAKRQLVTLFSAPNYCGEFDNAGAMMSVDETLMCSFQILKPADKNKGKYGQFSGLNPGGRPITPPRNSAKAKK
Sequence of PP2A (P67775 whole entry): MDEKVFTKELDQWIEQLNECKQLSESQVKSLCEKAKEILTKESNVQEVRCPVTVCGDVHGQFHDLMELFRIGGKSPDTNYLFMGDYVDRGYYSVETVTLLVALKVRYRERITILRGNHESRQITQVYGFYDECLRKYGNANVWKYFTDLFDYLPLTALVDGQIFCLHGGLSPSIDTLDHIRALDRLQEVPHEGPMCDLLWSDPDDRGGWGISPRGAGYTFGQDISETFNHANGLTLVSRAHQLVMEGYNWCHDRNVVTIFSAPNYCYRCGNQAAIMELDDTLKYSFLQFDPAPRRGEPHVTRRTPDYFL

CC1=C([C@H](O)CC(=O)O[C@H](C)[C@@H](C)[C@H](O)CC(=O)[C@@H](C)[C@@H](O)CCCCCOC(=O)c2ccccc2)C(=O)OC1=O [1d, (6S,7S,10R,11S,12R)-6,10-dihydroxy-12-(((R)-3-hydroxy-3-(4-methyl-2,5-dioxo-2,5-dihydrofuran-3-yl)propanoyl)oxy)-7,11-dimethyl-8-oxotridecyl benzoate]
IC50 [1]: 34 ± 2 nM | PP1 versus PP2A preference (in words) [1]: PP1 selective | IC50 PP1 [1]: nanomolar range | IC50 [2]: 260 nM

CC1=C([C@H](O)CC(=O)O[C@H](C)[C@@H](C)[C@H](O)CC(=O)[C@@H](C)[C@@H](O)CCCCCOC(=O)c2ccc(-c3ccccc3)cc2)C(=O)OC1=O [1e, (6S,7S,10R,11S,12R)-6,10-dihydroxy-12-(((R)-3-hydroxy-3-(4-methyl-2,5-dioxo-2,5-dihydrofuran-3-yl)propanoyl)oxy)-7,11-dimethyl-8-oxotridecyl [1,1’-biphenyl]-4-carboxylate]
IC50 [1]: 1500 ± 150 nM | PP1 versus PP2A preference (in words) [1]: PP1 selective | IC50 PP1 [1]: nanomolar range | IC50 [2]: 6800 nM

CO[C@H]([C@H](O)CC(=O)[C@@H](C)[C@@H](O)CC[C@@H](C)[C@@H]1O[C@]2(CC[C@@H](C)[C@H](CC[C@H](C)C(C)=O)O2)CC[C@@H]1C)[C@H](OC(=O)C[C@@H](O)C1=C(C)C(=O)OC1=O)C(C)C [TTM, tautomycin]
Selectivity for PP1 over PP2A [3]: approximately 5 fold

C=C/C(=C/C(=O)C[C@H](C)C[C@@H](C)CC[C@H](O)[C@H](C)C(=O)C[C@@H](O)[C@H](C)[C@@H](C)OC(=O)C[C@@H](O)C1=C(C)C(=O)OC1=O)CC [TTN, tautomycetin, reference compound]
IC50 [1]: 11 ± 1 nM | Selectivity for PP1 over PP2A [3]: ~140 fold | IC50 [2]: 490 nM
